# Read-outs that look alike come from different tables or passages of the source.
# Columns and labels:
# peptic ulcer patients = settings: cited from earlier work
# [1] = system: animal toxicity studies or in clinical usage; settings: cited from earlier work
# histamine H3 receptor = target: T1, histamine H3 receptor (Rattus norvegicus, UniProt Q9QYN8); assay: Inhibition of [^3 H]-N-alpha-methylhistamine binding to rat brain membranes
# T1 construct: from tissue
# Method: A series of compounds were prepared and tested for their histamine H3 receptor antagonist activity. The antagonist activity of the compounds was detected by observing inhibition of (^3 H)-N-(alpha)methylhistamine activity on rat brain membranes.
# The various compounds were tested for the ability to bind to the histamine H3 receptor. A binding assay in a rat brain membrane preparation, based on inhibition of binding of [^3 H]-N-alpha-methylhistamine using excess unlabeled alpha-methylhistamine to account for nonspecific binding, was developed.
# brain in rats = settings: cited from earlier work
# [2] = system: H3 receptors in the cortex; assay: Blood-brain barrier penetration by ex vivo binding of [^3 H]-N^α -methylhistamine in rat cortex
# Method: Blood-brain barrier penetration in rats was assessed by an ex vivo binding procedure. Young adult male Long-Evans rats were injected i.p. with saline or H3 antagonists in saline. At various times after injection animals were sacrificed, the cortex was removed, homogenized in 50 mM Na/K-phosphate buffer, pH 7.4, and the binding of 1 nM [^3 H]-N^α -methylhistamine was measured using 400 μg protein of the homogenate. Nonspecific binding was accounted for by the inclusion of excess thioperamide in some samples. Under these conditions, the binding was approximately 90% specific.
# histamine H3 receptors = settings: in vitro; cited from earlier work
# Male albino CF-1 mice = assay: Behavioral effects in mice: sleep induced by (R)α-methylhistamine; type: in vivo, mouse
# Method: (§1) The overall strategy to show central nervous system antagonist activity was to challenge effects of the agonist (R)α-methylhistamine. Therefore, the first objective was to establish a dose response curve for behavioral effects of (R)α-methylhistamine. Male albino CF-1 mice weighing 20-30 g were used. Saline or (R)α-methylhistamine in saline was injected i.p. in a volume ≤0.4 ml. […] Animals were scored for the presence (1) or absence (0) of the behavior and the results were reported as the accumulated score for a 30 minute period (maximum score=9).
# (§2) To assess the effects of antagonists, they were administered with the (R)α-methylhistamine in saline.
# Inositol Triphosphate [3] = settings: reference compound; cited from earlier work
# NMDA = assay: NOVASCREEN receptor selectivity assay: NMDA; type: binding; settings: 10^-5 M
# Calcium [4] = assay: NOVASCREEN receptor selectivity assay: Calcium (Nifedipine); type: binding; settings: 10^-5 M
# Potassium = assay: NOVASCREEN receptor selectivity assay: Potassium; type: binding; settings: 10^-5 M
# VIP = assay: NOVASCREEN receptor selectivity assay: VIP; type: binding; settings: 10^-5 M
# Male Sprague-Dawley rats = assay: Food intake in 24-hour-fasted rats; type: in vivo, rat
# Method: Male Sprague-Dawley rats (200-300 grams) were used in all experiments. Rats were fasted for 24 hours prior to all experiments. Water was provided ad lib. Rats were singly placed in a ventilated plastic circular rat metabolism chamber with a stainless steel wire mess grid flood equipped with food and H2 O attachments. A measured quantity of food (50 grams) and water (100 mls) was supplied through attachments to the metabolism chambers. Food and water intake was measured at the 2, 4 and 6 hour time periods.
# Final volumes were 1.0 ml/kg. Subsequently, they were left undisturbed for the experimental period except when the food and H2 O attachments were briefly removed for measurement of food and water intake. At the completion of the experiment, animals were returned to their home cages. The results are found in Table III and FIGS. 7 and 8.
# Neurotensin = assay: NOVASCREEN receptor selectivity assay: Neurotensin; type: binding; settings: 10^-5 M
# [5] = system: adenosine, excitory or inhibitory amino acid, dopamine, serotonin, or a broad range of petidergic receptors, or to ion channel proteins, peptide factor or …; assay: NOVASCREEN receptor selectivity study (whole panel); type: binding; settings: 10^-5 M
# Quisqualate = assay: NOVASCREEN receptor selectivity assay: Quisqualate; type: binding; settings: 10^-5 M
# Adenosine = assay: NOVASCREEN receptor selectivity assay: Adenosine; type: binding; settings: 10^-5 M
# [6] = system: Adenylate Cyclase Forskolin; assay: NOVASCREEN receptor selectivity assay: Adenylate Cyclase, Forskolin; type: binding; settings: 10^-5 M
# Dopamine 1 = assay: NOVASCREEN receptor selectivity assay: Dopamine 1; type: binding; settings: 10^-5 M
# GABAB = assay: NOVASCREEN receptor selectivity assay: GABAB; type: binding; settings: 10^-5 M
# [7] = Toxicity observed in testing to date; type: in vivo; settings: all testing to date, even at high doses
# Substance K = assay: NOVASCREEN receptor selectivity assay: Substance K; type: binding; settings: 10^-5 M
# Glycine [8] = assay: NOVASCREEN receptor selectivity assay: Glycine (excitatory); type: binding; settings: 10^-5 M
# PCP = assay: NOVASCREEN receptor selectivity assay: PCP; type: binding; settings: 10^-5 M
# ANF (rat) = assay: NOVASCREEN receptor selectivity assay: ANF (rat); type: binding; settings: 10^-5 M
# Arg-Vasopressin V1 = assay: NOVASCREEN receptor selectivity assay: Arg-Vasopressin V1; type: binding; settings: 10^-5 M
# Angiotensin = assay: NOVASCREEN receptor selectivity assay: Angiotensin; type: binding; settings: 10^-5 M
# Serotonin 2 = assay: NOVASCREEN receptor selectivity assay: Serotonin 2; type: binding; settings: 10^-5 M
# MK-801 = assay: NOVASCREEN receptor selectivity assay: MK-801; type: binding; settings: 10^-5 M
# Glycine [9] = assay: NOVASCREEN receptor selectivity assay: Glycine (inhibitory); type: binding; settings: 10^-5 M
# Kainate = assay: NOVASCREEN receptor selectivity assay: Kainate; type: binding; settings: 10^-5 M
# Bombesin = assay: NOVASCREEN receptor selectivity assay: Bombesin; type: binding; settings: 10^-5 M
# NGF = assay: NOVASCREEN receptor selectivity assay: NGF; type: binding; settings: 10^-5 M
# GABAA = assay: NOVASCREEN receptor selectivity assay: GABAA; type: binding; settings: 10^-5 M
# Chloride = assay: NOVASCREEN receptor selectivity assay: Chloride; type: binding; settings: 10^-5 M
# Calcium [10] = type: binding; settings: 10^-5 M
# Benzodiazephine = assay: NOVASCREEN receptor selectivity assay: Benzodiazephine; type: binding; settings: 10^-5 M
# EGF = assay: NOVASCREEN receptor selectivity assay: EGF; type: binding; settings: 10^-5 M
# CCK Central = assay: NOVASCREEN receptor selectivity assay: CCK Central; type: binding; settings: 10^-5 M
# Serotonin 1 = assay: NOVASCREEN receptor selectivity assay: Serotonin 1; type: binding; settings: 10^-5 M
# H3 -receptor = assay: In vivo assays of H3-receptor antagonist effect (overall)
# Method: as §1, §2
# Inositol Triphosphate [11] = assay: NOVASCREEN receptor selectivity assay: Inositol Triphosphate; type: binding; settings: 10^-5 M
# Dopamine 2 = assay: NOVASCREEN receptor selectivity assay: Dopamine 2; type: binding; settings: 10^-5 M
# NPY = assay: NOVASCREEN receptor selectivity assay: NPY; type: binding; settings: 10^-5 M
# Substance P = assay: NOVASCREEN receptor selectivity assay: Substance P; type: binding; settings: 10^-5 M
# CCK Peripheral = assay: NOVASCREEN receptor selectivity assay: CCK Peripheral; type: binding; settings: 10^-5 M
# [12] = system: Protein Kinase C Phorbol Ester; assay: NOVASCREEN receptor selectivity assay: Protein Kinase C, Phorbol Ester; type: binding; settings: 10^-5 M
# Somatostatin = assay: NOVASCREEN receptor selectivity assay: Somatostatin; type: binding; settings: 10^-5 M
# T1 sequence (Q9QYN8 whole entry): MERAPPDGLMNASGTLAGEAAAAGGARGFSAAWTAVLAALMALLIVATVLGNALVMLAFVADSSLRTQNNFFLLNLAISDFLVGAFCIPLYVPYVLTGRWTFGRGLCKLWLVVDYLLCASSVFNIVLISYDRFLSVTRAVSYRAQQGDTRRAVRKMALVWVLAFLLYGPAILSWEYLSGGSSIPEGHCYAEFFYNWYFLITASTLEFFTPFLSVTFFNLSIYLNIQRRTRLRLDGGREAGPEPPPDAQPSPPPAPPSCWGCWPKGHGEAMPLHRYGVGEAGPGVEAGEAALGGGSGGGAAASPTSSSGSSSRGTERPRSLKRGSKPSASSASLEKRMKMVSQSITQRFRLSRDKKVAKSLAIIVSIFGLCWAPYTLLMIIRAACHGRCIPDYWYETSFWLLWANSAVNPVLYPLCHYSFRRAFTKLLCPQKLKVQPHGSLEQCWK
smiles,measurement,setting,value
C/N=C(\S)NCCSCc1[nH]cnc1C [metiamide],granulocytopenia (in words),peptic ulcer patients,low incidence of granulocytopenia
CN/C(=N/CCSCc1nc[nH]c1C)NC#N [cimetidine],granulocytopenia or other side effects (in words),[1],"did not cause granulocytopenia, or any other side effects"
"S=C(NC1CCCCC1)N1CCC(c2cnc[nH]2)CC1 [Thioperamide, reference compound]",IC50,histamine H3 receptor,4 ± 0.6 nM
same,IC50,"histamine H3 receptor; read-out: affinity, repeated in text",4 nM
same,dose required in vivo to inhibit histamine release from the brain (in words),brain in rats,relatively high doses are required in vivo
same,binding of [^3 H]-N^α -methylhistamine to cortex (in words),"[2]; 2, 5, and 10 mg/kg i.p., 15 min after injection",decreased the binding of [^3 H]-N^α -methylhistamine
same,penetration of the blood-brain barrier (in words),"[2]; thioperamide 2, 5, 10 mg/kg i.p., 15 min",able to penetrate the blood-brain barrier
same,Ki,histamine H3 receptors,4.3 nM
same,soporific effect of (R)α-methylhistamine (in words),Male albino CF-1 mice; 30 mg/kg of (R)α-methylhistamine,able to inhibit the soporific effect
same,behavior with antagonist alone (in words),Male albino CF-1 mice; in the absence of the α-methylhistamine H3 receptor agonist,"animals were very active, exhibiting normal behaviors"
O=P(O)(O)O[C@@H]1[C@H](O)[C@H](O)[C@@H](OP(=O)(O)O)[C@H](OP(=O)(O)O)[C@H]1O [IP3],Ki,Inositol Triphosphate [3],12.5 nM
"O=C(CCCCC1CCCCC1)N1CCC(c2c[nH]cn2)CC1 [Compound 1, 4-(1-cyclohexylvaleroyl-4-piperidyl)-1H-imidazole]",Initial Percent Inhibition (Average; N = 2),NMDA,-4.5%
same,Initial Percent Inhibition (Average; N = 2),Calcium [4],8.1%
same,Initial Percent Inhibition (Average; N = 2),Potassium,7.7%
same,Initial Percent Inhibition (Average; N = 2),VIP,17.1%
same,food intake 2 HR,Male Sprague-Dawley rats; 3 mg/kg i.p.,5.687
same,food intake 4 HR,Male Sprague-Dawley rats; 3 mg/kg i.p.,7.333
same,food intake 2 HR,Male Sprague-Dawley rats; 10 mg/kg i.p.,2.000
same,food intake 4 HR,Male Sprague-Dawley rats; 10 mg/kg i.p.,5.167
same,food intake 2 HR,Male Sprague-Dawley rats; 30 mg/kg i.p.,1.167
same,food intake 4 HR,Male Sprague-Dawley rats; 30 mg/kg i.p.,2.333
same,food intake 6 HR,Male Sprague-Dawley rats; 30 mg/kg i.p.,5.000
same,Initial Percent Inhibition (Average; N = 2),Neurotensin,-10.5%
same,binding to panel receptors (in words),[5],no significant binding
same,Initial Percent Inhibition (Average; N = 2),Quisqualate,-1.8%
same,Initial Percent Inhibition (Average; N = 2),Adenosine,-3.0%
same,Initial Percent Inhibition (Average; N = 2),[6],2.1%
same,Initial Percent Inhibition (Average; N = 2),Dopamine 1,6.4%
same,Initial Percent Inhibition (Average; N = 2),GABAB,0.0%
same,toxicity (in words),[7],no toxicity
same,Initial Percent Inhibition (Average; N = 2),Substance K,29.2%
same,penetration of the blood-brain barrier (in words),"[2]; 50 and 70 mg/kg, one hour after injection",penetrates the blood-brain barrier one hour after injections
same,penetration of the blood-brain barrier compared with thioperamide (in words),[2]; taking into account the difference in affinity,penetrates the blood-brain barrier at least as well as thioperamide
same,Initial Percent Inhibition (Average; N = 2),Glycine [8],1.8%
same,Initial Percent Inhibition (Average; N = 2),PCP,9.7%
same,Initial Percent Inhibition (Average; N = 2),ANF (rat),0.1%
same,Initial Percent Inhibition (Average; N = 2),Arg-Vasopressin V1,10.1%
same,Initial Percent Inhibition (Average; N = 2),Angiotensin,6.5%
same,Initial Percent Inhibition (Average; N = 2),Serotonin 2,10.5%
same,Initial Percent Inhibition (Average; N = 2),MK-801,-8.6%
same,Initial Percent Inhibition (Average; N = 2),Glycine [9],17.4%
same,Initial Percent Inhibition (Average; N = 2),Kainate,42.1%
same,Initial Percent Inhibition (Average; N = 2),Bombesin,-5.5%
same,Initial Percent Inhibition (Average; N = 2),NGF,17.1%
same,Initial Percent Inhibition (Average; N = 2),GABAA,0.6%
same,Initial Percent Inhibition (Average; N = 2),Chloride,-3.4%
same,Initial Percent Inhibition (Average; N = 2),Calcium [10],1.9%
same,Initial Percent Inhibition (Average; N = 2),Benzodiazephine,2.7%
same,Initial Percent Inhibition (Average; N = 2),EGF,18.1%
same,Initial Percent Inhibition (Average; N = 2),CCK Central,18.6%
same,Initial Percent Inhibition (Average; N = 2),Serotonin 1,-3.6%
same,H3 -receptor antagonist effect (in words),H3 -receptor,effective as an H3 -receptor antagonist
same,soporific effect of (R)α-methylhistamine (in words),Male albino CF-1 mice; 25 mg/kg (R)α-methylhistamine,inhibited the soporific effect
same,Initial Percent Inhibition (Average; N = 2),Inositol Triphosphate [11],9.2%
same,Initial Percent Inhibition (Average; N = 2),Dopamine 2,3.5%
same,Initial Percent Inhibition (Average; N = 2),NPY,-8.7%
same,Initial Percent Inhibition (Average; N = 2),Substance P,20.0%
same,Initial Percent Inhibition (Average; N = 2),CCK Peripheral,6.9%
same,Initial Percent Inhibition (Average; N = 2),[12],0.9%
same,Initial Percent Inhibition (Average; N = 2),Somatostatin,4.1%
